Results from US8518958B2, “Pyrido [2,3-D] pyrimidines and their use as kinase inhibitors” (Forma Therapeutics, Inc., priority 2006, dated 2013).

Experiments:
[1] = biological target: B-Raf delta1-415 (Homo sapiens, UniProt P15056); assay: B-Raf kinase inhibition (MAPH filter plate, 33P-ATP, MEK1 substrate); settings: read-out: Biochemical IC50 B-Raf
Summary of the method: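 IC50 values come from dilution series (top 10 μM) measured by scintillation counting of 33P-labelled MEK1 retained on H3PO4-washed filters. Reactions ran 1 h at room temperature in pH 7.0 Mops buffer with MgCl2, MnCl2 and DTT, using 12.5 μCi/ml [γ-33P]ATP and B-Raf delta1-415 titrated to 50% turnover.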

[2] = test system: HT-29 tumor cells; assay: Anti-proliferative activity, SRB assay; format: cell-based, human; settings: Homo sapiens, HT-29, 72 h, 72 hours exposure, read-out: CELLULAR IC50 HT-29
Summary of the method: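 IC50 derived from % inhibition relative to DMSO controls, measured by sulforhodamine B binding (OD570) after TCA fixation. Cells (3,000-15,000 per well) were seeded a day ahead, then treated with graded compound concentrations for 72 hours.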

Chain of B-Raf delta1-415 (P15056 416-766): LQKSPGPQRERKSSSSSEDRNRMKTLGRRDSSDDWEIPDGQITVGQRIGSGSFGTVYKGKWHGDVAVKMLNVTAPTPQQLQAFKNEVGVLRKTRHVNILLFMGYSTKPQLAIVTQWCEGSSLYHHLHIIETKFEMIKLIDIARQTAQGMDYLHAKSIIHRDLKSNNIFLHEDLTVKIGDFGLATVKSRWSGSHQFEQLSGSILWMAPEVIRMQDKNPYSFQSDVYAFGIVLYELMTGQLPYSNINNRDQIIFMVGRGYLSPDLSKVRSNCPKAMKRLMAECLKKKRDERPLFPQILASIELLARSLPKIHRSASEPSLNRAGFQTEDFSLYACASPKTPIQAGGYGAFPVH

Row | IC50 [1] | IC50 [2] | SMILES
1 | < 500 nM | < 1000 nM | CCCN1CCN(c2ccc(Nc3ncc4cc(-c5c(Cl)cccc5Cl)c(=O)n(OCCOC)c4n3)cc2)CC1 [Compound 207, 2-(4-(4-propylpiperazino)phenyl)-amino-6-(2,6-dichlorophenyl)-8-(2-methoxyethyl)oxy-pyrido[2,3-d]pyrimidin-7-one]
2 | < 100 nM | < 1000 nM | COCCOn1c(=O)c(-c2cc(NC(=O)c3cccc(C(F)(F)F)c3)ccc2Cl)cc2cnc(Nc3ccc(N4CCN(C)CC4)cc3)nc21 [Compound 107, 8-(2-Methoxyethyl)oxy-2-(4-(4-methylpiperazino)-6-(5-(3-trifluoromethylbenzoyl)amino-2-chloro-phenyl)-phenylamino)-pyrido[2,3-d]pyrimidin-7-one]
3 | < 100 nM | < 1000 nM | COCCOn1c(=O)c(-c2c(F)cccc2Cl)cc2cnc(Nc3ccc(N4CCOCC4)cc3)nc21 [Compound 121]
4 | < 500 nM | < 1000 nM | COC(=O)c1cc(Nc2ncc3cc(-c4c(C)cccc4C)c(=O)n(OC)c3n2)cn1C [Compound 79]
5 | < 100 nM | < 1000 nM | O=c1c(-c2c(F)cccc2Cl)cc2cnc(Nc3ccc(N4CCOCC4)cc3)nc2n1OCC1CC1 [Compound 129]
6 | < 500 nM | < 1000 nM | COn1c(=O)c(-c2c(Cl)cccc2Cl)cc2cnc(Nc3cccc(S(=O)(=O)N4CCOCC4)c3)nc21 [Compound 127, 6-(2,6-Dichlorophenyl)-2-(3-morpholinosulfonylphenyl)-amino-8-methoxy-pyrido[2,3-d]pyrimidin-7-one]
7 | < 100 nM | < 1000 nM | COCCOn1c(=O)c(-c2c(Cl)cccc2Cl)cc2cnc(Nc3ccc(N4CCN(C(C)C)CC4)cc3)nc21 [Compound 205, 6-(2,6-Dichlorophenyl)-8-(2-methoxyethyl)oxy-2-(4-(4-(1-methylethyl)piperazino)phenyl)-amino-pyrido[2,3-d]pyrimidin-7-one]
8 | < 1000 nM | < 1000 nM | COn1c(=O)c(-c2c(Cl)cccc2Cl)cc2cnc(Nc3ccc(C#N)cc3)nc21 [Compound 86, 2-(4-Cyanophenyl)-amino-6-(2,6-dichlorophenyl)-8-methoxy-pyrido[2,3-d]pyrimidin-7-one]
9 | < 500 nM | < 10000 nM | COn1c(=O)c(-c2c(Cl)cccc2Cl)cc2cnc(NC3CC3)nc21 [Compound 113, 2-Cyclopropylamino-6-(2,6-dichlorophenyl)-8-methoxy-pyrido[2,3-d]pyrimidin-7-one]
10 | < 500 nM | < 1000 nM | COn1c(=O)c(-c2c(Cl)cccc2Cl)cc2cnc(Nc3ccc(CN4CCC[C@H]4CO)cc3)nc21 [Compound 169, 6-(2,6-Dichlorophenyl)-2-(4-(2-(S)-hydroxymethyl-pyrrolidinomethyl)phenyl)-amino-8-methoxy-pyrido[2,3-d]pyrimidin-7-one]
11 | > 1000 nM | < 1000 nM | COn1c(=O)c(-c2c(Cl)cccc2Cl)cc2cnc(Nc3ccccc3F)nc21 [Compound 190, 6-(2,6-Dichlorophenyl)-2-(2-fluorophenyl)amino-8-methoxy-pyrido[2,3-d]pyrimidin-7-one]
12 | > 1000 nM | < 10000 nM | O=c1c(-c2ccccc2Cl)cc2cnc(Nc3ccccc3)nc2n1O [Compound 240, 6-(2-Chlorophenyl)-8-hydroxy-2-phenylamino-pyrido[2,3-d]pyrimidin-7-one]
13 | < 500 nM | < 10000 nM | COn1c(=O)c(-c2c(Cl)cccc2Cl)cc2cnc(Nc3nncs3)nc21 [Compound 90, 6-(2,6-Dichlorophenyl)-8-methoxy-2-(1-thia-3,4-diazol-2-yl)-amino-pyrido[2,3-d]pyrimidin-7-one]
14 | < 500 nM | > 10000 nM | COn1c(=O)c(-c2c(Cl)cccc2Cl)cc2cnc(Nc3cccc(-c4nnn[nH]4)c3)nc21 [Compound 130, 6-(2,6-Dichlorophenyl)-8-methoxy-2-(3-tetrazol-5-ylphenyl)-amino-pyrido[2,3-d]pyrimidin-7-one]
15 | < 500 nM | < 1000 nM | COn1c(=O)c(-c2c(Cl)cccc2Cl)cc2cnc(Nc3cccc(CN4CC[C@@H](O)C4)c3)nc21 [Compound 182, 6-(2,6-Dichlorophenyl)-2-(3-(3-(R)-hydroxypyrrolidinomethyl)phenyl)-amino-8-methoxy-pyrido[2,3-d]pyrimidin-7-one]
16 | < 100 nM | < 1000 nM | COn1c(=O)c(-c2c(Cl)cccc2Cl)cc2cnc(Nc3ccc(CN4CCCC4)cc3)nc21 [Compound 101, 6-(2,6-Dichlorophenyl)-8-methoxy-2-(4-pyrrolidinomethylphenyl)-amino-pyrido[2,3-d]pyrimidin-7-one]

Row | IC50 [1] | IC50 [2] | SMILES
17 | < 500 nM | < 1000 nM | Cn1cc(Nc2ncc3cc(-c4c(Cl)cccc4Cl)c(=O)n(OC[C@@H](O)CO)c3n2)cc1C(=O)NCCN1CCCC1 [Compound 103, 6-(2,6-Dichlorophenyl)-8-(2-(S)-2,3-dihydroxypropyl)oxy-2-(5-(2-pyrrolidinoethyl)aminocarbonyl-1-methyl-pyrrol-3-yl)-amino-pyrido[2,3-d]pyrimidin-7-one]
18 | < 500 nM | < 1000 nM | COCCN1CCN(C(=O)c2cc(Nc3ncc4cc(-c5c(Cl)cccc5Cl)c(=O)n(OC)c4n3)cn2C)CC1 [Compound 188, 6-(2,6-Dichlorophenyl)-8-methoxy-2-(5-(4-(2-methoxy)ethyl)piperazino-carbonyl-1-methyl-pyrrol-3-yl)-amino-pyrido[2,3-d]pyrimidin-7-one]
19 | > 1000 nM | > 10000 nM | C/C=C/C(=O)Nc1ncc2cc(-c3c(C)cccc3C)c(=O)n(OC)c2n1 [Compound 96, 2-But-2-enoylamino-6-(2,6-dimethylphenyl)-8-methoxy-pyrido[2,3-d]pyrimidin-7-one]
20 | < 500 nM | < 1000 nM | COCCN(C)C(=O)c1cc(Nc2ncc3cc(-c4c(Cl)cccc4Cl)c(=O)n(OC)c3n2)cn1C [Compound 154, 6-(2,6-Dichlorophenyl)-8-methoxy-2-(5-N-(2-methoxyethyl)-N-methyl-aminocarbonyl-1-methyl-pyrrol-3-yl)-amino-pyrido[2,3-d]pyrimidin-7-one]
21 | < 100 nM | < 1000 nM | COn1c(=O)c(-c2c(Cl)cccc2Cl)cc2cnc(Nc3ccc(NS(C)(=O)=O)cc3)nc21 [Compound 111, 6-(2,6-Dichlorophenyl)-8-methoxy-2-(4-methylsulfonylaminophenyl)-amino-pyrido[2,3-d]pyrimidin-7-one]
22 | < 500 nM | < 10000 nM | COn1c(=O)c(-c2c(Cl)cccc2Cl)cc2cnc(Nc3ccncn3)nc21 [Compound 135, 6-(2,6-Dichlorophenyl)-8-methoxy-2-(pyrimidin-4-yl)-amino-pyrido[2,3-d]pyrimidin-7-one]
23 | > 1000 nM | < 10000 nM | CCN(CC)S(=O)(=O)c1cccc(Nc2ncc3cc(-c4c(Cl)cccc4Cl)c(=O)n(OC)c3n2)c1 [Compound 123, 6-(2,6-Dichlorophenyl)-2-(3-diethylaminosulfonylphenyl)-amino-8-methoxy-pyrido[2,3-d]pyrimidin-7-one]
24 | < 1000 nM | < 1000 nM | COn1c(=O)c(-c2c(Cl)cccc2Cl)cc2cnc(Nc3ccccc3)nc21 [Compound 174, 6-(2,6-Dichlorophenyl)-8-methoxy-2-phenylamino-pyrido[2,3-d]pyrimidin-7-one]
25 | > 1000 nM | > 10000 nM | COn1c(=O)c(-c2c(Cl)cccc2Cl)cc2cnc(NC(=O)C3CC3)nc21 [Compound 80, 2-Cyclopropylcarbonylamino-6-(2,6-dichlorophenyl)-8-methoxy-pyrido[2,3-d]pyrimidin-7-one]
26 | < 500 nM | < 1000 nM | COn1c(=O)c(-c2c(Cl)cccc2Cl)cc2cnc(Nc3ccc(N4CCN(C(C)C)CC4)cc3)nc21 [Compound 187]
27 | < 500 nM | < 1000 nM | COn1c(=O)c(-c2c(Cl)cccc2Cl)cc2cnc(Nc3ccc(Cn4cnnc4)cc3)nc21 [Compound 175, 2-(4-(1,3,4-triazol-1-yl)methylphenyl)-amino-6-(2,6-dichlorophenyl)-8-methoxy-pyrido[2,3-d]pyrimidin-7-one]
28 | < 500 nM | < 1000 nM | COn1c(=O)c(-c2c(Cl)cccc2Cl)cc2cnc(Nc3ccc(CN4CCC(F)(F)C4)cc3)nc21 [Compound 196, 6-(2,6-Dichlorophenyl)-2-(4-(3,3-difluoropyrrolidinomethyl)phenyl)-amino-8-methoxy-pyrido[2,3.-d]pyrimidin-7-one]
29 | < 500 nM | < 1000 nM | COCCOn1c(=O)c(-c2cc(NC(=O)c3ccccc3)ccc2Cl)cc2cnc(Nc3ccc(N4CCN(C)CC4)cc3)nc21 [Compound 106, 6-(5-Benzoylamino-2-chloro-phenyl)-8-(2-methoxyethyl)oxy-2-(4-(4-methylpiperazino)-phenylamino)-pyrido[2,3-d]pyrimidin-7-one]
30 | < 100 nM | < 1000 nM | COn1c(=O)c(-c2c(Cl)cccc2Cl)cc2cnc(Nc3ccc(N4CCCC4=O)cc3)nc21 [Compound 110, 6-(2,6-Dichlorophenyl)-8-methoxy-2-(4-(2-oxopyrrolidino)phenyl)-amino-pyrido[2,3-d]pyrimidin-7-one]
31 | < 100 nM | < 10000 nM | COn1c(=O)c(-c2c(Cl)cccc2Cl)cc2cnc(Nc3cc(C(=O)NC[C@@H](O)CO)n(C)c3)nc21 [Compound 117, 6-(2,6-Dichlorophenyl)-2-(5-(2-(R)-2,3-dihydroxyethylamino)carbonyl-1-methyl-pyrrol-3-yl)-amino-8-methoxy-pyrido[2,3-d]pyrimidin-7-one]
